Patent US20250320213A1, “Nitrogen-Containing Heterocyclic Compounds” (Pfizer Inc., priority 2024, published 2025)

These compounds were tested against T1, STAT6 (Homo sapiens, UniProt P42226) (assay: STAT6 Reporter Luciferase Assay (IL-13 stimulated HaCaT keratinocyte NanoLuc reporter cells)). Conditions: IL-13 stimulated HaCaT STAT6 NanoLuc reporter cells; read-out: Reporter EC50.
T1 construct: stably transfected HaCaT keratinocyte cell line, which expresses NanoLuc luciferase reporter gene under the transcriptional control of the STAT6 responsive promoter; endogenous in cells; host or cells: HaCaT keratinocyte reporter cell line (stably transfected with a NanoLuc reporter)
T1 sequence (P42226 1-847): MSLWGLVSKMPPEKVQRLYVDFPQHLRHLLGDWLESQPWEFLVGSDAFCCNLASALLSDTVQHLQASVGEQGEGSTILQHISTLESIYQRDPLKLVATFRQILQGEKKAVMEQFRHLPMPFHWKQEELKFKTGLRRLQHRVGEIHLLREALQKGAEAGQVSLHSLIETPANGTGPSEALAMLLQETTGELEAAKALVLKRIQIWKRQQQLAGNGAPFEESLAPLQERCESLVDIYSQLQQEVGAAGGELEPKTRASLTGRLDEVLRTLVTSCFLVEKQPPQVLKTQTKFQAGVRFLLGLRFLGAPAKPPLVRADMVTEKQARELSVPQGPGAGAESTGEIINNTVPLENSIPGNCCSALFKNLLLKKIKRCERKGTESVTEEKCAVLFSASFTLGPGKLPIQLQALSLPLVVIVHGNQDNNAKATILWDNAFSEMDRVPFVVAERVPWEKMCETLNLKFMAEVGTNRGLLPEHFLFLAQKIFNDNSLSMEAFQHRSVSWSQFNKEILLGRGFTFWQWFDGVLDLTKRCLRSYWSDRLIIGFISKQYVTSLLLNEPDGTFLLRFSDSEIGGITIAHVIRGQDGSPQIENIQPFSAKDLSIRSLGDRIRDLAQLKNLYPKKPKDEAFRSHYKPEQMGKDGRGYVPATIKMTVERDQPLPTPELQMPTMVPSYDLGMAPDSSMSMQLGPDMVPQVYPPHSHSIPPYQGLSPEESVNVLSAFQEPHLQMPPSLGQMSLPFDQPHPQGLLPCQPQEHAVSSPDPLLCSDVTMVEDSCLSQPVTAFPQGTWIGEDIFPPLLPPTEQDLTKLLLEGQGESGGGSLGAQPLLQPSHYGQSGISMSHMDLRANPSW
Assay type: cell-based
Method in brief: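 Cells were plated overnight, washed, exposed to compound for two hours, stimulated with IL-13 (0.12 nM final) for four hours at 37 °C, and then lysed with Nano-Glo substrate for 15 min before luminescence reading.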

Row | SMILES | EC50 [nM]
1 | CNC(=O)[C@@H]1CCCN1C(=O)c1ccc(N2CCc3c(c(C(=O)NCc4ccc(NC(=O)N(C)C)cc4)nn3C(C)C)C2)nc1 [Example 222, (S)-N-(4-(3,3-dimethylureido)benzyl)-1-isopropyl-5-(5-(2-(methylcarbamoyl)pyrrolidine-1-carbonyl)pyridin-2-yl)-4,5,6,7-tetrahydro-1H-pyrazolo[4,3-c]pyridine-3-carboxamide] | 1480
2 | COC[C@H]1CCCN1C(=O)c1ccc(N2CCc3c(c(C(=O)NCc4ccc(NC(=O)N(C)C)cc4)nn3C(C)C)C2)nc1 [Example 225, (R)-N-(4-(3,3-dimethylureido)benzyl)-1-isopropyl-5-(5-(2-(methoxymethyl)pyrrolidine-1-carbonyl)pyridin-2-yl)-4,5,6,7-tetrahydro-1H-pyrazolo[4,3-c]pyridine-3-carboxamide] | 644
3 | COC1(C)CN(C(=O)c2ccc(N3CCc4c(c(C(=O)NCc5ccc(NC(=O)N(C)C)cc5)nn4C(C)C)C3)nc2)C1 [Example 226, N-(4-(3,3-dimethylureido)benzyl)-1-isopropyl-5-(5-(3-methoxy-3-methylazetidine-1-carbonyl)pyridin-2-yl)-4,5,6,7-tetrahydro-1H-pyrazolo[4,3-c]pyridine-3-carboxamide] | 1930
4 | CC(C)n1nc(C(=O)NCc2ccc(NC(=O)N(C)C)cc2)c2c1CCN(c1ccc(C(=O)N3C[C@@H]4C[C@H]3C(=O)N4)cn1)C2 [Example 227, N-(4-(3,3-dimethylureido)benzyl)-1-isopropyl-5-(5-((1S,4S)-6-oxo-2,5-diazabicyclo[2.2.1]heptane-2-carbonyl)pyridin-2-yl)-4,5,6,7-tetrahydro-1H-pyrazolo[4,3-c]pyridine-3-carboxamide] | > 6120
5 | CCNC(=O)CN(C)C(=O)c1ccc(N2CCc3c(c(C(=O)NCc4ccc(NC(=O)N(C)C)cc4)nn3C(C)C)C2)nc1 [Example 229, N-(4-(3,3-dimethylureido)benzyl)-5-(5-((2-(ethylamino)-2-oxoethyl)(methyl)carbamoyl)pyridin-2-yl)-1-isopropyl-4,5,6,7-tetrahydro-1H-pyrazolo[4,3-c]pyridine-3-carboxamide] | 592
6 | CC(C)n1nc(C(=O)NCc2ccc(NC(=O)N(C)C)cc2)c2c1CCN(c1ccc(C(=O)N3CCC(C)(C#N)C3)cn1)C2 (centres unmarked) [Example 240, 5-(5-(3-cyano-3-methylpyrrolidine-1-carbonyl)pyridin-2-yl)-N-(4-(3,3-dimethylureido)benzyl)-1-isopropyl-4,5,6,7-tetrahydro-1H-pyrazolo[4,3-c]pyridine-3-carboxamide] | 3630
7 | CC(C)n1nc(C(=O)NCc2ccc(NC(=O)N(C)C)cc2)c2c1CCN(c1ccc(C(=O)N3CC4CC(C3)C4O)cn1)C2 (centres unmarked) [Example 243, N-(4-(3,3-dimethylureido)benzyl)-5-(5-(6-hydroxy-3-azabicyclo[3.1.1]heptane-3-carbonyl)pyridin-2-yl)-1-isopropyl-4,5,6,7-tetrahydro-1H-pyrazolo[4,3-c]pyridine-3-carboxamide] | 1650
8 | CC(C)n1nc(C(=O)NCc2ccc(NC(=O)N(C)C)cc2)c2c1CCN(c1ccc(C(=O)N3CC4(COCC(=O)N4)C3)cn1)C2 [Example 288, N-(4-(3,3-dimethylureido)benzyl)-1-isopropyl-5-(5-(6-oxo-8-oxa-2,5-diazaspiro[3.5]nonane-2-carbonyl)pyridin-2-yl)-4,5,6,7-tetrahydro-1H-pyrazolo[4,3-c]pyridine-3-carboxamide] | 1640

Compounds with a lower EC50, results first:

Row | EC50 [nM] | SMILES
9 | 352 | CCOC1CN(C(=O)c2ccc(N3CCc4c(c(C(=O)NCc5ccc(NC(=O)N(C)C)cc5)nn4C(C)C)C3)nc2)C1 [Example 242, N-(4-(3,3-dimethylureido)benzyl)-5-(5-(3-ethoxyazetidine-1-carbonyl)pyridin-2-yl)-1-isopropyl-4,5,6,7-tetrahydro-1H-pyrazolo[4,3-c]pyridine-3-carboxamide]
10 | 330 | CC(C)n1nc(C(=O)NCc2ccc(NC(=O)N(C)C)cc2)c2c1CCN(c1ccc(C(=O)N3C[C@@H]4CCO[C@@H]4C3)cn1)C2 [Example 241, N-(4-(3,3-dimethylureido)benzyl)-5-(5-((3aS,6aS)-hexahydro-2H-furo[2,3-c]pyrrole-5-carbonyl)pyridin-2-yl)-1-isopropyl-4,5,6,7-tetrahydro-1H-pyrazolo[4,3-c]pyridine-3-carboxamide]
11 | 312 | CC(C)n1nc(C(=O)NCc2ccc(NC(=O)N(C)C)cc2)c2c1CCN(c1ccc(C(=O)N3C[C@H]4COC[C@H]4C3)cn1)C2 [Example 289, N-(4-(3,3-dimethylureido)benzyl)-5-(5-((3aR,6aS)-hexahydro-1H-furo[3,4-c]pyrrole-5-carbonyl)pyridin-2-yl)-1-isopropyl-4,5,6,7-tetrahydro-1H-pyrazolo[4,3-c]pyridine-3-carboxamide]
12 | 236 | CC(C)n1nc(C(=O)NCc2ccc(NC(=O)N(C)C)cc2)c2c1CCN(c1ccc(C(=O)N3C[C@@H]4OCCO[C@@H]4C3)cn1)C2 [Example 239, N-(4-(3,3-dimethylureido)benzyl)-5-(5-((4aR,7aS)-hexahydro-5H-[1,4]dioxino[2,3-c]pyrrole-6-carbonyl)pyridin-2-yl)-1-isopropyl-4,5,6,7-tetrahydro-1H-pyrazolo[4,3-c]pyridine-3-carboxamide]
13 | 227 | CC(C)n1nc(C(=O)NCc2ccc(NC(=O)N(C)C)cc2)c2c1CCN(c1ccc(C(=O)N3CCCNC(=O)C3)cn1)C2 [Example 221, N-(4-(3,3-dimethylureido)benzyl)-1-isopropyl-5-(5-(3-oxo-1,4-diazepane-1-carbonyl)pyridin-2-yl)-4,5,6,7-tetrahydro-1H-pyrazolo[4,3-c]pyridine-3-carboxamide]
14 | 201 | CC(C)n1nc(C(=O)NCc2ccc(NC(=O)N(C)C)cc2)c2c1CCN(c1ccc(C(=O)N3CCNC(=O)C3)cn1)C2 [Example 223, N-(4-(3,3-dimethylureido)benzyl)-1-isopropyl-5-(5-(3-oxopiperazine-1-carbonyl)pyridin-2-yl)-4,5,6,7-tetrahydro-1H-pyrazolo[4,3-c]pyridine-3-carboxamide]
15 | 196 | CC(C)n1nc(C(=O)NCc2ccc(NC(=O)N(C)C)cc2)c2c1CCN(c1ccc(C(=O)N3CC(C)(O)C3)cn1)C2 [Example 244, N-(4-(3,3-dimethylureido)benzyl)-5-(5-(3-hydroxy-3-methylazetidine-1-carbonyl)pyridin-2-yl)-1-isopropyl-4,5,6,7-tetrahydro-1H-pyrazolo[4,3-c]pyridine-3-carboxamide]
16 | 163 | CC(=O)N1CCN(C(=O)c2ccc(N3CCc4c(c(C(=O)NCc5ccc(NC(=O)N(C)C)cc5)nn4C(C)C)C3)nc2)CC1 [Example 224, 5-(5-(4-acetylpiperazine-1-carbonyl)pyridin-2-yl)-N-(4-(3,3-dimethylureido)benzyl)-1-isopropyl-4,5,6,7-tetrahydro-1H-pyrazolo[4,3-c]pyridine-3-carboxamide]
17 | 116 | CC(C)n1nc(C(=O)NCc2ccc(NC(=O)N(C)C)cc2)c2c1CCN(c1ccc(C(=O)N3CCC4(COC4)C3)cn1)C2 [Example 228, 5-(5-(2-oxa-6-azaspiro[3.4]octane-6-carbonyl)pyridin-2-yl)-N-(4-(3,3-dimethylureido)benzyl)-1-isopropyl-4,5,6,7-tetrahydro-1H-pyrazolo[4,3-c]pyridine-3-carboxamide]
